Measured values as given in patent US11612607B2, “Fenoldopam topical formulations for treating skin disorders” (TARO PHARMACEUTICAL INDUSTRIES LTD., priority 2016, dated 2023).

How the values were obtained:
Format in all cases: in vivo, BALB/c mice
[1] = tested on: IMQ-induced psoriasis model; assay: First animal study: IMQ-induced psoriasis, phenotype and PASI scoring
Excerpt: (§1) The effect of topical compositions on the treatment of psoriasis has been tested in two animal studies. In both studies, typical features of psoriasis, namely erythema, scaling, and skin thickness, were induced by the application of 5% w/w imiquimod (IMQ) cream on the dorsal skin of BALB/c mice over a period of 6 consecutive days. Animals that developed psoriasis-like symptoms were used for studying the efficacy of the fenoldopam topical compositions. In the fenoldopam-treated groups, the animals received imiquimod only for the first two days. From the third day of the study, the animals received imiquimod and fenoldopam for the next four days. […]
Psoriatic area and severity index (PASI) scoring has been analyzed to determine the efficacy of the fenoldopam compositions of the present invention with appropriate controls as part of the study. FIG. 11 depicts PASI scoring including body weight, erythema, scaling, and skin thickness determined during the study. […]

[2] = tested on: TNF-α; assay: First animal study: TNF-α in skin homogenates (ELISA)
Excerpt: (§2) The effect of topical compositions on the treatment of psoriasis has been tested in two animal studies. In both studies, typical features of psoriasis, namely erythema, scaling, and skin thickness, were induced by the application of 5% w/w imiquimod (IMQ) cream on the dorsal skin of BALB/c mice over a period of 6 consecutive days. Animals that developed psoriasis-like symptoms were used for studying the efficacy of the fenoldopam topical compositions. In the fenoldopam-treated groups, the animals received imiquimod only for the first two days. From the third day of the study, the animals received imiquimod and fenoldopam for the next four days. First Animal Study: The different treatment groups of mice used in the first animal study were as following: the SHAM group in the study represents mice which were shaven on the dorsal side without any treatment; negative control group represents the typical psoriatic model induced by imiquimod 5% (IMQ); positive control group represents the mice induced with psoriasis by imiquimod and then treated with the marketed steroid betamethasone valerate (IMQ BMV); and treatment groups represent the mice induced with psoriasis by imiquimod and then treated with a topical dose of 1 mg/cm^2 fenoldopam using different compositions of fenoldopam, such as solution (IMQ FD), water-washable ointment (IMQ WB 45/55), or anhydrous gel (IMQ AG BHT) compositions.
(§3) An IMQ-induced psoriasis model reproduces biochemical and histopathological parameters characteristic of human psoriatic lesions. Topical application of the IMQ cream increased levels of cytokines such as IL-23, TNF-α, and IL-17 in the treated skin tissues. The skin homogenates obtained from mice of different groups were analyzed using ELISA for quantification of IL-17, IL-23, and TNF-α, levels as the selected interleukins are the typical inflammatory markers of psoriasis. […] The effect of fenoldopam was as effective as the reference topical treatment with the marketed steroid.

[3] = tested on: TNF-α; assay: Second animal study: TNF-α in skin homogenates (ELISA)
Excerpt: as §2, with “In” for “The effect of topical compositions on the treatment of psoriasis has been tested in two animal studies. In”
(§4) The second animal study was conducted in order to test additional topical compositions of fenoldopam with different strengths (0.01%, 0.1% and 1% of fenoldopam), as well as the effect of systemic administration of fenoldopam. […]
(§5) The skin homogenates obtained from mice of the different groups were analyzed using ELISA for quantification of IL-17, IL-23, TNF-α, and IL-22 levels, as the selected interleukins are the typical inflammatory markers of psoriasis.

[4] = tested on: IL-23; assay: Second animal study: IL-23 in skin homogenates (ELISA)
Excerpt: as §2, with “In” for “The effect of topical compositions on the treatment of psoriasis has been tested in two animal studies. In”
The second animal study was conducted in order to test additional topical compositions of fenoldopam with different strengths (0.01%, 0.1% and 1% of fenoldopam), as well as the effect of systemic administration of fenoldopam. The different groups of mice used in the second animal study were as following: the SHAM group in the study represents mice which were shaven on the dorsal side without any treatment; negative control group represents the typical psoriatic model induced by imiquimod 5% (IMQ); positive control group represents the mice induced with psoriasis by imiquimod and then treated with the marketed steroid betamethasone valerate (IMQ BMV); and treatment groups represent the mice induced with psoriasis by imiquimod and then treated with a topical dose of various compositions of fenoldopam: water-washable base (IMQ_WB45/55-0.01%, IMQ_WB45/55-0.1%, IMQ_WB45/55-1% or IMQ_WB45/55_1% No citric acid), or oleaginous ointment composition (IMQ_OB 0.01%, IMQ_OB 0.1% or IMQ_OB […]). An additional group of mice received systemic Fenoldopam by intraperitoneal injection (IMQ_FD_IP).
as §5

[5] = tested on: IL-22; assay: Second animal study: IL-22 in skin homogenates (ELISA)
Excerpt: as §2, with “In” for “The effect of topical compositions on the treatment of psoriasis has been tested in two animal studies. In”
as §4, §5

[6] = tested on: IMQ-induced psoriasis model; assay: First animal study: histopathology (H&E) of dorsal skin; conditions: vs. IMQ-treated group
Excerpt: as §1

[7] = tested on: IMQ-induced psoriasis model; assay: Second animal study: histopathology (H&E) of skin; conditions: skin collected on the 7th day
Excerpt: as §2, with “In both” for “The effect of topical compositions on the treatment of psoriasis has been tested in two animal studies. In both”, “BHT) compositions. […]” for “BHT) compositions.”

[8] = tested on: IMQ-induced psoriasis model; assay: Second animal study: IMQ-induced psoriasis, phenotype and PASI scoring; conditions: compared to negative control
Excerpt: as §2, with “In” for “The effect of topical compositions on the treatment of psoriasis has been tested in two animal studies. In”
as §4

[9] = tested on: IL-17; assay: First animal study: IL-17 in skin homogenates (ELISA)
Excerpt: as §2, §3

[10] = tested on: IL-23; assay: First animal study: IL-23 in skin homogenates (ELISA)
Excerpt: as §2, §3

[11] = tested on: IL-17; assay: Second animal study: IL-17 in skin homogenates (ELISA)
Excerpt: as §2, with “In” for “The effect of topical compositions on the treatment of psoriasis has been tested in two animal studies. In”
as §4, §5

In the case of `CCCCC(=O)O[C@]1(C(=O)CO)[C@@H](C)C[C@H]2[C@@H]3CCC4=CC(=O)C=C[C@]4(C)[C@@]3(F)[C@@H](O)C[C@@]21C` [BMV, betamethasone valerate], the “Psoriatic symptoms (phenotypic images of dorsal skin)” value ([1]; IMQ-treated mice, topical treatment for four days, 1 mg/cm^2 fenoldopam) is reported as “amelioration of psoriatic symptoms”, the “PASI scores over the treatment period” value ([1]; scale of 0-4, vs. negative control) is reported as “declines in PASI scores” and the “Decrease in TNF-α levels in comparison with the IMQ group” value ([2]; first animal study) is reported as 2.75 fold. For the same compound, the “Level of TNF-α” value ([2]; vs. IMQ group) was “inhibited”, the “Fold difference in TNF-α levels (↓, vs. IMQ)” value ([3]; listed as IMQ_BMV) was 2.21 ↓ fold and the “Fold difference in TNF-α levels (↓, vs. IMQ)” value ([3]; listed as positive control) was 2.21 fold. The “Decline in IL-23 levels compared to the negative control” value ([4]; listed as IMQ_BMV) was “decline in IL-23 levels”, the “Fold difference in IL-23 levels (↓, vs. IMQ)” value ([4]; listed as IMQ_BMV) was 1.57 ↓ fold and the “Fold difference in IL-23 levels (↓, vs. IMQ)” value ([4]; listed as positive control) was 1.57 fold. For the same compound, the “Fold difference in IL-22 levels (↓, vs. IMQ)” value ([5]; listed as IMQ_BMV) was 1.55 ↓ fold, the “Fold difference in IL-22 levels (↓, vs. IMQ)” value ([5]; listed as positive control) was 1.55 fold and the “Histopathology (H&E): psoriatic features” value [6] was “decline in the intensity of psoriatic features”. The “Histopathology (H&E): psoriatic features” value [7] was “ameliorated all of the above-mentioned parameters”, the “Psoriasis symptoms (phenotypic images: erythema, scaling, skin thickness)” value [8] was “remission of the psoriasis symptoms” and the “Psoriasis symptoms (phenotypic images: erythema, scaling, skin thickness)” value ([8]; listed as IMQ_BMV) was “amelioration of psoriatic symptoms”. For the same compound, the “Decrease in IL-17 levels in comparison with the IMQ group” value ([9]; first animal study) was 2.74 fold, the “Level of IL-17” value ([9]; vs. IMQ group) was “inhibited” and the “Decrease in IL-23 levels in comparison with the IMQ group” value ([10]; first animal study) was 2.02 fold. For the same compound, the “Level of IL-23” value ([10]; vs. IMQ group) was “inhibited”, the “Fold difference in IL-17 levels (↓, vs. IMQ)” value ([11]; listed as IMQ_BMV) was 1.43 ↓ fold and the “Fold difference in IL-17 levels (↓, vs. IMQ)” value ([11]; listed as positive control) was 1.43 fold.
